Results: patent EP0454461A1, “Selective amplification system using Q beta replicase, a hybridization assay and a method of detecting and assessing concentration of target nucleic acid in liquid samples” (GENE-TRAK SYSTEMS CORPORATION, priority 1990, dated 1991)

Tests used:
Qβ replicase [1] = experiment: Inhibition by dyes of MDV-1 replication in linear-phase Qβ replicase reactions; assay type: biochemical, bacteriophage Qβ; details: about 3µg/ml dye; MDV-1 template
Experimental: A number of dyes, including ethidium bromide, ethidium bromide homodimer, propidium iodide, proflavine, quinacrine, Hoescht 33258 (bis-benzamidine), dimidium bromide and acridine orange, were tested for their ability to inhibit the replication of MDV-1 in linear-phase reactions, i.e., where the template RNA is present in excess over the enzyme and the amount of replicated RNA thus increases linearly with time. […] One of the strongest inhibitors, propidium iodide, was selected for further study. A concentration of dye producing a 70% inhibition of replication, about 3µg/ml, is sufficiently low to allow detection of the fluorescence increase produced when the dye binds to the RNA products of the reaction.

Qβ replicase [2] = experiment: Effect of propidium iodide on replication of wild type MDV-1 RNA in a Qβ replicase preparation (32P-CTP incorporation, geometric phase); assay type: biochemical, bacteriophage Qβ; details: wild type MDV-1 template
Experimental: Propidium iodide was tested for its effect on the replication of wild type RNA in a preparation of Qβ replicase. Propidium iodide in an amount of either 0, 1, or 3µg/ml was added to a reaction buffer containing: 90mM Tris HC1 (pH7.5), 14mM MgC1₂, 0.4mM each ATP, GTP, UTP, and CTP, and 10µCi α-³²P-CTP. The Qβ replicase reaction was initiated in each sample by addition of 1.2µg of Qβ replicase prepared according to the method of Eoyang and August, (1972), ibid. Aliquots of the reaction mixture were withdrawn every 5 minutes and spotted on DE81 filters (Schleicher & Schuell Inc., Keene, NH). The spotted filters were washed repeatedly with 0.5M NaPO₄, (pH7.0) to remove unincorporated nucleotide. The filters were counted for Cerenkov radiation by standard procedures in a scintillation counter. Addition of propidium iodide delayed the point in time at which levels of incorporation resulting from the replication of wild type MDV-1 template became detectable. One microgram per milliter delayed the appearance of replicated product between about 2-5 minutes, which corresponds to about 20-50% inhibition of the rate of replication in the geometric phase, and 3µg/ml delayed the appearance of product for about 20 minutes, which corresponds to approximately a 3-fold reduction in the rate of replication.

Compound: CC[N+](C)(CC)CCC[n+]1c(-c2ccccc2)c2cc(N)ccc2c2ccc(N)cc21 [propidium iodide]
- inhibition of replication (Qβ replicase [1]): 70%
- delay of the appearance of replicated product (Qβ replicase [2]; 1 µg/ml propidium iodide): 2 to 5 min
- inhibition of the rate of replication in the geometric phase (Qβ replicase [2]; 1 µg/ml propidium iodide): 20-50%
- delay of the appearance of product (Qβ replicase [2]; 3µg/ml propidium iodide): about 20 minutes
- reduction in the rate of replication (Qβ replicase [2]; 3µg/ml propidium iodide): ~3 fold
